Test results published in patent US12662491B2 (Redona Therapeutics, Inc., priority 2020, dated 2026).

molecular target: T1, Zcchc11 enzyme (Homo sapiens, UniProt Q5TAX3); assay: TUTase assay (Zcchc11 assay, Lin28a-dependent polyuridylation of pre-let-7); type: biochemical; conditions: LIN28A 10 nM, Zcchc11 0.2 nM, 5′-fluorescein pre-let-7 miRNA 2 nM, UTP 5 uM, room temperature, 30 minutes pre-incubation; read-out: Potency Lin28a-dep Z11 IC50
T1 construct: made in house; host or cells: HEK293 cells (Zcchc11); E. coli Rosetta II (LIN28A)
T1 sequence (Q5TAX3 212-1420): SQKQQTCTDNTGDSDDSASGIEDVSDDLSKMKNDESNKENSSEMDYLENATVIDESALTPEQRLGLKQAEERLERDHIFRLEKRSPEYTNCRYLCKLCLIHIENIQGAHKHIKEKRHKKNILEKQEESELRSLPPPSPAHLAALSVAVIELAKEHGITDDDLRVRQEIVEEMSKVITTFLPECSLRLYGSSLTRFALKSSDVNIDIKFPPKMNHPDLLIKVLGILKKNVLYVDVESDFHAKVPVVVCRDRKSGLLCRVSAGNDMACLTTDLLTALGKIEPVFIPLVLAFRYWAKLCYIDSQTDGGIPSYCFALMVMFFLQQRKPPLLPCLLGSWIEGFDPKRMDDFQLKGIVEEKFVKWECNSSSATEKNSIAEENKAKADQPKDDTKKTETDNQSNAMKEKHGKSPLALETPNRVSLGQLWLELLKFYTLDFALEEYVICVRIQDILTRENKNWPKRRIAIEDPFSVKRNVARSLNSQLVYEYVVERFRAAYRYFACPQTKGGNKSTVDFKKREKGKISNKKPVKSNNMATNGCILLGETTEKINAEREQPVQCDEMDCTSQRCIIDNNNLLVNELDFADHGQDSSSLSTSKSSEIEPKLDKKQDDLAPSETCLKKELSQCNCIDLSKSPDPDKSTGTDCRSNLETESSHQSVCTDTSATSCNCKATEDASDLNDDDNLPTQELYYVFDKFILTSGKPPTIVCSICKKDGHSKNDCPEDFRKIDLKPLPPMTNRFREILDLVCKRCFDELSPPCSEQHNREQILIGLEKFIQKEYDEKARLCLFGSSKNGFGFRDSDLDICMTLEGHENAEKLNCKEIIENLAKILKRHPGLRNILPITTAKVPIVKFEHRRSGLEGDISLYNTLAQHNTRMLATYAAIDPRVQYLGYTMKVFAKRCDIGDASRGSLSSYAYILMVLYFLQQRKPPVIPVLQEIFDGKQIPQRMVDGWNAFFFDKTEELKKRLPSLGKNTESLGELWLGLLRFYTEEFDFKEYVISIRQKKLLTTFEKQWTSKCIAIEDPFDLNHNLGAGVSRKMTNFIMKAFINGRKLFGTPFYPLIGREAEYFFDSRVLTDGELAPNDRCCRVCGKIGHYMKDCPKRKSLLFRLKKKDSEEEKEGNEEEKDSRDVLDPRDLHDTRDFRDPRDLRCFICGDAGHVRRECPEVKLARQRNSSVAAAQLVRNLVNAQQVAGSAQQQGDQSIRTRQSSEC
In short: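 Polyuridylation measured as fluorescein loss when a rhodamine-labelled A20 probe anneals to U-tails added to fluorescein pre-let-7 (2 nM). Reaction: truncated Zcchc11 0.2 nM, E. coli-made LIN28A 10 nM, UTP 5 uM, HEPES pH 7.3, room temperature. Initial rates fitted to four-parameter IC50.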

IC50 | Structure (SMILES)
≤ 1000 nM | COc1ccc(Cl)c(OC[C@H]2CC3CC3N2c2cc3c(cc2F)c(=O)c(C(=O)O)cn3-c2ccnc(N)c2)n1 (stereo partly drawn) [Example 66, 1-(2-Aminopyridin-4-yl)-7-((3R)-3-(((3-chloro-6-methoxypyridin-2-yl)oxy)methyl)-2-azabicyclo[3.1.0]hexan-2-yl)-6-fluoro-4-oxo-1,4-dihydroquinoline-3-carboxylic acid]
≤ 1000 nM | COc1ccc(Cl)c(OCC2N(c3cc4c(cc3Cl)c(=O)c(C(=O)O)cn4-c3cc(N)cnn3)CCC2(C)C)n1 (stereo not shown) [Example 67, 1-(5-Aminopyridazin-3-yl)-6-chloro-7-(2-(((3-chloro-6-methoxypyridin-2-yl)oxy)methyl)-3,3-dimethylpyrrolidin-1-yl)-4-oxo-1,4-dihydroquinoline-3-carboxylic acid]
≤ 1000 nM | COc1ccc(Cl)c(OC[C@H]2C[C@H]3C[C@H]3N2c2cc3c(cc2F)c(=O)c(C(=O)O)cn3-c2ccc(N3CC(N(C)C)C3)nc2)n1 [Example 68, 7-((1R,3R,5R)-3-(((3-chloro-6-methoxypyridin-2-yl)oxy)methyl)-2-azabicyclo[3.1.0]hexan-2-yl)-1-(6-(3-(dimethylamino)azetidin-1-yl)pyridin-3-yl)-6-fluoro-4-oxo-1,4-dihydroquinoline-3-carboxylic acid]
≤ 1000 nM | CO/N=C1/C[C@H](COc2nc(OC)ccc2Cl)N(c2cc3c(cc2Cl)c(=O)c(C(=O)O)cn3-c2ccc(N3CC(N(C)C)C3)nc2)C1 [Example 69, 6-chloro-7-[(2R,4Z)-2-[[(3-chloro-6-methoxypyridin-2-yl)oxy]methyl]-4-(methoxyimino)pyrrolidin-1-yl]-1-[6-[3-(dimethylamino)azetidin-1-yl]pyridin-3-yl]-4-oxoquinoline-3-carboxylic acid]
≤ 1000 nM | COc1ccc(Cl)c(OC[C@H]2C[C@@H]3C[C@@H]3N2c2cc3c(cc2F)c(=O)c(C(=O)O)cn3-c2ccc(N3CC(N(C)C)C3)nc2)n1 [Example 70, 7-[(3R)-3-{[(3-chloro-6-methoxypyridin-2-yl)oxy]methyl}-2-azabicyclo[3.1.0]hexan-2-yl]-1-{6-[3-(dimethylamino)azetidin-1-yl]pyridin-3-yl}-6-fluoro-4-oxo-1,4-dihydroquinoline-3-carboxylic acid]
≤ 1000 nM | COc1ccc(Cl)c(OC[C@H]2CC(c3cn[nH]c3)CN2c2cc3c(cc2F)c(=O)c(C(=O)O)cn3-c2ccc(N3CC(N(C)C)C3)nc2)n1 (stereo partly drawn) [Example 71, 7-[(2R)-2-[[(3-chloro-6-methoxypyridin-2-yl)oxy]methyl]-4-(1H-pyrazol-4-yl)pyrrolidin-1-yl]-1-[6-[3-(dimethylamino)azetidin-1-yl]pyridin-3-yl]-6-fluoro-4-oxoquinoline-3-carboxylic acid]
≤ 1000 nM | COc1ccc(Cl)c(OC[C@H]2CC3CC3N2c2cc3c(cc2F)c(=O)c(C(=O)O)cn3-c2ccc(N3CC(N(C)C)C3)nc2)n1 (stereo partly drawn) [Example 72, 7-[(3R)-3-{[(3-chloro-6-methoxypyridin-2-yl)oxy]methyl}-2-azabicyclo[3.1.0]hexan-2-yl]-1-{6-[3-(dimethylamino)azetidin-1-yl]pyridin-3-yl}-6-fluoro-4-oxo-1,4-dihydroquinoline-3-carboxylic acid]
≤ 1000 nM | COc1ccc(Cl)c(OC[C@H]2C[C@@H]3C[C@@H]3N2c2cc3c(cc2F)c(=O)c(C(=O)O)cn3-c2ccc(N3CC(N(C)C)C3)nc2)n1 [Example 74, 7-[(1S,3R,5S)-3-{[(3-chloro-6-methoxypyridin-2-yl)oxy]methyl}-2-azabicyclo[3.1.0]hexan-2-yl]-1-{6-[3-(dimethylamino)azetidin-1-yl]pyridin-3-yl}-6-fluoro-4-oxo-1,4-dihydroquinoline-3-carboxylic acid]
≤ 1000 nM | COc1ccnc(OC[C@H]2CCCN2c2cc3c(cc2Cl)c(=O)c(C(=O)O)cn3-c2ccc(N3CC(N(C)C)C3)nc2)c1Cl [Example 75, 6-chloro-7-[(2R)-2-{[(3-chloro-4-methoxypyridin-2-yl)oxy]methyl}pyrrolidin-1-yl]-1-{6-[3-(dimethylamino)azetidin-1-yl]pyridin-3-yl}-4-oxo-1,4-dihydroquinoline-3-carboxylic acid]
≤ 1000 nM | O=C(O)c1cn(-c2cc3n(n2)CCOC3)c2cc(N3CCC[C@@H]3COc3ncccc3Cl)c(Cl)cc2c1=O [Example 76, (R)-6-chloro-7-(2-(((3-chloropyridin-2-yl)oxy)methyl)pyrrolidin-1-yl)-1-(6,7-dihydro-4H-pyrazolo[5,1-c][1,4]oxazin-2-yl)-4-oxo-1,4-dihydroquinoline-3-carboxylic acid]
≤ 1000 nM | O=C(O)c1cn(-c2cnccn2)c2cc(N3C[C@@H](F)C[C@H]3COc3ncccc3Cl)c(Cl)cc2c1=O [Example 77, 6-chloro-7-[(2S,4S)-2-{[(3-chloropyridin-2-yl)oxy]methyl}-4-fluoropyrrolidin-1-yl]-4-oxo-1-(pyrazin-2-yl)-1,4-dihydroquinoline-3-carboxylic acid]
≤ 1000 nM | CN(C)C1CN(c2ccc(-n3cc(C(=O)O)c(=O)c4cc(Cl)c(N5CCC[C@@H]5COc5ncccc5Cl)cc43)cn2)C1 [Example 78, 6-chloro-7-[(2R)-2-{[(3-chloropyridin-2-yl)oxy]methyl}pyrrolidin-1-yl]-1-{6-[3-(dimethylamino)azetidin-1-yl]pyridin-3-yl}-4-oxo-1,4-dihydroquinoline-3-carboxylic acid]

same assay, conditions: Lin28a-dependent Zcchc11 (Z11) TUTase assay; read-out: Potency Lin28a-dep Z11 IC50

IC50 | Structure (SMILES)
≤ 1000 nM | COc1ccc(-n2cc(C(=O)O)c(=O)c3cc(Cl)c(N4CCC[C@@H]4COc4ncccc4Cl)cc32)cn1 [Example 353, (R)-6-chloro-7-(2-(((3-chloropyridin-2-yl)oxy)methyl)pyrrolidin-1-yl)-1-(6-methoxypyridin-3-yl)-4-oxo-1,4-dihydroquinoline-3-carboxylic acid]
1000 to 10000 nM | O=C(O)c1cn(-c2cnc(O)cn2)c2cc(N3CCC[C@@H]3COc3ccccn3)c(F)cc2c1=O [Example 354, (R)-6-fluoro-1-(5-hydroxypyrazin-2-yl)-4-oxo-7-(2-((pyridin-2-yloxy)methyl)pyrrolidin-1-yl)-1,4-dihydroquinoline-3-carboxylic acid]
≤ 1000 nM | CNCCNc1ccc(-n2cc(C(=O)O)c(=O)c3cc(Cl)c(N4CCC[C@@H]4COc4ncccc4Cl)cc32)cn1 [Example 355, (R)-6-chloro-7-(2-(((3-chloropyridin-2-yl)oxy)methyl)pyrrolidin-1-yl)-1-(6-((2-(methylamino)ethyl)amino)pyridin-3-yl)-4-oxo-1,4-dihydro-quinoline-3-carboxylic acid]
≤ 1000 nM | Cc1cccnc1OC[C@H]1CCCN1c1cc2c(cc1F)c(=O)c(C(=O)O)cn2C1(C)CC1 [Example 356, (R)-6-fluoro-1-(1-methylcyclo-propyl)-7-(2-(((3-methylpyridin-2-yl)oxy)methyl)pyrrolidin-1-yl)-4-oxo-1,4-dihydroquinoline-3-carboxylic acid]
1000 to 10000 nM | O=C(O)c1cn(C2CC2)c2c(F)c(N3CCC[C@@H]3COc3cccnc3)c(F)cc2c1=O [Example 357, (R)-1-cyclopropyl-6,8-difluoro-4-oxo-7-(2-((pyridin-3-yloxy)methyl)pyrrolidin-1-yl)-1,4-dihydro-quinoline-3-carboxylic acid]
1000 to 10000 nM | CC(=O)NC1CCC(n2cc(C(=O)O)c(=O)c3cc(F)c(N4CCC[C@@H]4COc4ccccn4)cc32)CC1 (stereo partly drawn) [Example 358, 1-(4-acetamidocyclo-hexyl)-6-fluoro-4-oxo-7-[(2R)-2-[(pyridin-2-yloxy)methyl]pyrrolo-1-yl]-1,4-dihydroquinoline-3-carboxylic acid]
1000 to 10000 nM | COC1CC(n2cc(C(=O)O)c(=O)c3cc(F)c(N4CCC[C@@H]4COc4ccccn4)cc32)C1 (stereo partly drawn) [Example 359, (R)-6-fluoro-1-(3-methoxycyclo-butyl)-4-oxo-7-(2-((pyridin-2-yloxy)methyl)pyrrolidin-1-yl)-1,4-dihydro-quinoline-3-carboxylic acid]
